“And” between values parts separate entries of the source, which are not always exact repeats. Identical values can stand only once.
System: HCV pseudoparticles
Test: HCV pseudoparticle (HCVpp) entry assay in Huh7 hepatoma cells, luciferase readout
Assay type: cell-based, hepatitis C virus
Conditions: for % of control at ~30 uM: percentage of hepatitis C virus cellular entry at 30 μM peptide vs uninhibited control
Method: HCV pseudotype particle generation. Single cycle HCV pseudoparticles are composed of a replication-defective HIV genome and HCV envelope proteins. These pseudoparticles were made by transfecting 293T cells with 5 ug of each pNL43E-R-luc (Chen et al., J. Virol. 68(2):654-60 (1994)) and plasmid expressing HCV envelope proteins pCMV/E1-2 with profection transfection kit from Promega (Madison, Wis.). The medium was refreshed 12-24 hours after transfection and supernatant was collected 48 hours after transfection. The supernatant from a transfection of only pNL43E-R-luc was used each time as a control for non specific entry events.
Infection of hepatoma cell lines with HCV pseudotype particles and screen for inhibitory peptides. The hepatoma cells, Huh7, was seeded at 8000 cells in 90 ul medium in 96-well plate. In the case of the inhibitor screen, the inhibitor was incubated with cells for one hour at 37° C. and then 50 ul viral supernatant was added to the cells 24 hours after seeding. The viral stock was pre-tittered and diluted to yield approximately 10,000 to 20,000 RLU. The cells were incubated at 37° C. with 5% CO2 for additional 72 hours and were harvested for luciferase assay. Peptide stocks were prepared in 100% DMSO at 10 mg/ml and were first screened at 100 ug/ml and then a dose responsive curve was generated with 10 points 3-fold titration starting from 100 ug/ml.
The peptide of SEQ ID NO: 77 was first serial diluted by the factor of 3 in 100% DMSO from 100 ug/ml and then transferred to the assay plates at 100-fold dilution. The peptide was first incubated with cells and HCVpp (A) or HIVpp (B), respectively, for 30 minutes at […] in this experiment. Then, the medium containing the peptide was removed from the cells and virus with peptide was added to the cells. Cells were incubated for 72 hours and then were harvested for luciferase assay. Two separate trials were performed.
In addition, the peptide of SEQ ID NO: 77 was mutated at several positions and assayed in the HCV entry assay discussed above. […] The assays were performed essentially as described above.

[1] = 0.1 nM of peptide (printed for three rows), two values per peptide and row
[2] = 0.3 nM of peptide, two values per peptide
[3] = 1 nM of peptide, two values per peptide
[4] = 3 nM of peptide, two values per peptide
[5] = 10 nM of peptide, two values per peptide
[6] = 30 nM of peptide, two values per peptide
[7] = 100 nM of peptide, two values per peptide
[8] = 300 nM of peptide, two values per peptide
[9] = 10000 nM of peptide, two values per peptide
[10] = 30000 nM of peptide, two values per peptide

In the case of “A-G-K-W-E-Y-V-L-L-L-F-L-L (AGKWEYVLLLFLL; HCV peptide) [SEQ ID NO: 83, Gly-scan]”, the “% control (HCVpp entry), glycine scanning” value (shortened to “% control … glycine scanning”) (0.00003 uM of peptide, two values per peptide and row) is reported as 98 % control and 80 % control and 128 % control and 94 % control, the “% control … glycine scanning” value (0.0001 uM of peptide, two values per peptide) is reported as 75 % control and 94 % control and the “% control … glycine scanning” value (0.0003 uM of peptide, two values per peptide) is reported as 94 % control and 83 % control. The “% control … glycine scanning” value (0.001 uM of peptide, two values per peptide) was 70 % control and 67 % control, the “% control … glycine scanning” value (0.003 uM of peptide, two values per peptide) was 51 % control and 66 % control and the “% control … glycine scanning” value (0.01 uM of peptide, two values per peptide) was 76 % control and 56 % control. The “% control … glycine scanning” value (0.03 uM of peptide, two values per peptide) was 43 % control and 62 % control, the “% control … glycine scanning” value (30 uM of peptide, two values per peptide) was 18 % control and 15 % control and the “% of control at ~30 uM” value was 9%.
For “A-I-K-W-E-Y-V-L-L-L-F-L-P [SEQ ID NO: 127]”, the “% control (HCVpp entry), proline scanning” value (from here on “% control … proline scanning”) [1] was 90 % control and 86 % control and 75 % control and 122 % control and 113 % control, the “% control … proline scanning” value [2] was 84 % control and 81 % control and the “% control … proline scanning” value [3] was 71 % control and 85 % control. For the same substance, the “% control … proline scanning” value [4] was 66 % control and 53 % control, the “% control … proline scanning” value [5] was 102 % control and 74 % control and the “% control … proline scanning” value [6] was 78 % control and 83 % control. For the same substance, the “% control … proline scanning” value [7] was 77 % control and 74 % control, the “% control … proline scanning” value [8] was 63 % control and 72 % control and the “% control … proline scanning” value [9] was 29 % control and 27 % control. For the same substance, the “% control … proline scanning” value [10] was 57 % control and 29 % control.
“I-K-W-E-Y-V-L-L-L-F-L-L [SEQ ID NO: 107]” showed an HCVpp % inh (truncated peptides tested at 50 uM in 1% DMSO) of 88%.
With “A-I-K-W-E-Y-V-L-A-L-F-L-L (AIKWEYVLALFLL; HCV peptide) [SEQ ID NO: 94, Ala-scan]” the “% control (HCVpp entry), alanine scanning” value (“% control … alanine scanning” for short) [1] was 99 % control and 96 % control and 79 % control and 101 % control and 115 % control and 105 % control, the “% control … alanine scanning” value [2] was 104 % control and 92 % control and the “% control … alanine scanning” value [3] was 81 % control and 82 % control. The “% control … alanine scanning” value [4] was 58 % control and 89 % control, the “% control … alanine scanning” value [5] was 79 % control and 86 % control and the “% control … alanine scanning” value [6] was 58 % control and 48 % control. The “% control … alanine scanning” value [7] was 45 % control and 41 % control, the “% control … alanine scanning” value [8] was 42 % control and 33 % control and the “% control … alanine scanning” value [9] was 36 % control and 34 % control. The “% control … alanine scanning” value [10] was 14 % control and 28 % control and the “% of control at ~30 uM” value was 17%.
“A-I-K-A-E-Y-V-L-L-L-F-L-L (AIKAEYVLLLFLL; HCV peptide) [SEQ ID NO: 89, Ala-scan]” was tested, and the “% control … alanine scanning” value [1] was 76 % control and 84 % control and 95 % control and 104 % control and 105 % control and 96 % control, the “% control … alanine scanning” value [2] was 64 % control and 71 % control and the “% control … alanine scanning” value [3] was 96 % control and 85 % control. The “% control … alanine scanning” value [4] was 76 % control and 63 % control, the “% control … alanine scanning” value [5] was 57 % control and 63 % control and the “% control … alanine scanning” value [6] was 71 % control and 66 % control. The “% control … alanine scanning” value [7] was 38 % control and 41 % control, the “% control … alanine scanning” value [8] was 27 % control and 24 % control and the “% control … alanine scanning” value [9] was 17 % control and 24 % control. The “% of control at ~30 uM” value was 8%.
With “A-I-K-W-E-Y-V-L-L-K-F-L-L (AIKWEYVLLKFLL; HCV peptide) [SEQ ID NO: 134]” the “% control (HCVpp entry), lysine scanning” value [1] was 80 % control and 96 % control and 108 % control and 75 % control and 138 % control and 79 % control, the “% control (HCVpp entry), lysine scanning” value [2] was 104 % control and 85 % control and the “% control (HCVpp entry), lysine scanning” value [3] was 128 % control and 81 % control. The “% control (HCVpp entry), lysine scanning” value [4] was 94 % control and 92 % control, the “% control (HCVpp entry), lysine scanning” value [5] was 105 % control and 77 % control and the “% control (HCVpp entry), lysine scanning” value [6] was 101 % control and 76 % control. The “% control (HCVpp entry), lysine scanning” value [7] was 89 % control and 87 % control, the “% control (HCVpp entry), lysine scanning” value [8] was 75 % control and 68 % control and the “% control (HCVpp entry), lysine scanning” value [9] was 60 % control and 47 % control. The “% control (HCVpp entry), lysine scanning” value [10] was 56 % control and 45 % control.
In the case of “A-I-K-W-E-Y-V-K-L-L-F-L-L (AIKWEYVKLLFLL; HCV peptide) [SEQ ID NO: 132]”, the “% control (HCVpp entry), lysine scanning” value [1] is reported as 73 % control and 89 % control and 95 % control and 92 % control and 117 % control and 96 % control, the “% control (HCVpp entry), lysine scanning” value [2] is reported as 100 % control and 71 % control and the “% control (HCVpp entry), lysine scanning” value [3] is reported as 67 % control and 79 % control. The “% control (HCVpp entry), lysine scanning” value [4] was 78 % control and 75 % control, the “% control (HCVpp entry), lysine scanning” value [5] was 54 % control and 56 % control and the “% control (HCVpp entry), lysine scanning” value [6] was 71 % control and 89 % control. The “% control (HCVpp entry), lysine scanning” value [7] was 59 % control and 62 % control, the “% control (HCVpp entry), lysine scanning” value [8] was 46 % control and 44 % control and the “% control (HCVpp entry), lysine scanning” value [9] was 49 % control and 50 % control. The “% control (HCVpp entry), lysine scanning” value [10] was 42 % control and 41 % control.
In the case of “A-I-K-W-P-Y-V-L-L-L-F-L-L (AIKWPYVLLLFLL; HCV peptide) [SEQ ID NO: 119]”, the “% control … proline scanning” value [1] is reported as 93 % control and 76 % control and 87 % control and 85 % control and 102 % control and 126 % control, the “% control … proline scanning” value [2] is reported as 78 % control and 77 % control and the “% control … proline scanning” value [3] is reported as 72 % control and 68 % control. For the same substance, the “% control … proline scanning” value [4] was 94 % control and 62 % control, the “% control … proline scanning” value [5] was 54 % control and 48 % control and the “% control … proline scanning” value [7] was 40 % control and 46 % control. The “% control … proline scanning” value [8] was 40 % control and 47 % control and the “% control … proline scanning” value [10] was 28 % control and 17 % control.
With “A-I-A-W-E-Y-V-L-L-L-F-L-L (AIAWEYVLLLFLL; HCV peptide) [SEQ ID NO: 88, Ala-scan]” the “% control … alanine scanning” value [1] was 96 % control and 85 % control and 87 % control and 108 % control and 109 % control, the “% control … alanine scanning” value [2] was 91 % control and 101 % control and the “% control … alanine scanning” value [3] was 100 % control and 69 % control. For the same substance, the “% control … alanine scanning” value [4] was 81 % control and 93 % control, the “% control … alanine scanning” value [5] was 56 % control and 60 % control and the “% control … alanine scanning” value [6] was 53 % control and 66 % control. For the same substance, the “% control … alanine scanning” value [7] was 37 % control and 57 % control, the “% control … alanine scanning” value [8] was 42 % control and 45 % control and the “% control … alanine scanning” value [9] was 27 % control and 32 % control. The “% of control at ~30 uM” value was 9%.
With “A-I-K-W-E-Y-V-L-L-L-P-L-L (AIKWEYVLLLPLL; HCV peptide) [SEQ ID NO: 125]” the “% control … proline scanning” value [1] was 99 % control and 91 % control and 92 % control and 111 % control and 101 % control and 95 % control, the “% control … proline scanning” value [2] was 104 % control and the “% control … proline scanning” value [3] was 99 % control and 75 % control. For the same substance, the “% control … proline scanning” value [4] was 82 % control and 85 % control, the “% control … proline scanning” value [5] was 109 % control and 97 % control and the “% control … proline scanning” value [6] was 102 % control and 80 % control. The “% control … proline scanning” value [7] was 58 % control and 60 % control, the “% control … proline scanning” value [8] was 76 % control and 63 % control and the “% control … proline scanning” value [9] was 54 % control and 73 % control. The “% control … proline scanning” value [10] was 59 % control and 68 % control.
With “A-I-K-W-E-P-V-L-L-L-F-L-L (AIKWEPVLLLFLL; HCV peptide) [SEQ ID NO: 120]” the “% control … proline scanning” value [1] was 82 % control and 78 % control and 102 % control and 80 % control and 101 % control and 117 % control, the “% control … proline scanning” value [2] was 90 % control and 75 % control and the “% control … proline scanning” value [3] was 91 % control and 75 % control. The “% control … proline scanning” value [4] was 66 % control and 76 % control, the “% control … proline scanning” value [5] was 73 % control and 76 % control and the “% control … proline scanning” value [6] was 72 % control and 40 % control. For the same substance, the “% control … proline scanning” value [7] was 39 % control, the “% control … proline scanning” value [8] was 33 % control and 39 % control and the “% control … proline scanning” value [9] was 24 % control. For the same substance, the “% control … proline scanning” value [10] was 38 % control and 42 % control.
